{"source": "patent US12090158B2", "about": "“Medicine for diabetic peripheral neuropathy” (NIPPON CHEMIPHAR CO., LTD., priority 2018, dated 2024)", "key": {"[1]": {"tested_on": "STZ-induced diabetic neuropathy model rat", "assay": "STZ-induced diabetic neuropathy model rat, von Frey up-down stimulation method, 50% escape response threshold", "format": "in vivo", "conditions": "oral, compared with STZ control group", "description": "As one embodiment, the study was performed by administering the compound of the present invention to an STZ-induced diabetic neuropathy model rat, then giving a stimulus thereto by an up-down stimulation method, and calculating a 50% escape response threshold.\nA model was prepared by intravenously administering STZ as a diabetes-inducing substance to a rat. In a test, an animal that had developed diabetic neuropathy 35 days after STZ administration was used.\nOn the day before administration of STZ and the day before administration of a test substance, about 100 μL of blood was collected from the tail vein using a winged injection needle equipped with a heparin-treated capillary. The obtained blood was centrifuged with a centrifuge [centrifugation conditions: 4° C., 3,000 rpm (×2,150 g), 15 min], and then plasma was obtained. The blood glucose level of the obtained plasma was measured using a hexokinase G-6-PDH method using an automatic biochemical analyzer. Note that the amount of the obtained plasma was very small, and therefore the measurement was performed by diluting the plasma 5 times with physiological saline. […]\n35 days after administration of STZ, before administration, a 50% escape response threshold was measured, and the animals were divided into groups each including two animals such that the groups had the same average of escape response thresholds and the same average of body weights (severity of 50% escape response threshold: 8, severity of weight: 2). […]\nPain was evaluated during a pre-breeding period, and 35 days after administration of STZ, before administration of a test substance and one, two, four, and six hours after administration of the test substance. […] From the result, a 50% escape response threshold was calculated by the following method for calculating a 50% escape response threshold (the 50% escape response threshold was rounded off to two decimal places). […]"}, "rats (SD, male)": {"tested_on": "rats (SD, male)", "assay": "Rota-rod test, effect on motor coordination", "format": "in vivo, rat", "conditions": "60 mg/kg oral once, three hours after administration; for walking duration (time to fall from the rod): 10 rpm, cut-off 120 seconds", "description": "As an index for studying a central inhibitory effect and a muscle relaxation effect, an effect on motor coordination was studied using a Rota-rod test.\nIn each of the groups, the number of samples was 8. Before a test, a rotation speed was set to 10 rpm using a mark on a rotating disk of Rota-rod (47700, UGO BASILE S.R.L.). A rat was gently placed on the rotating rod, and it was confirmed that the rat was placed on the rod stably. Thereafter, time (seconds) for the rat to fall from the rod was recorded. A cut-off value was 120 seconds. Trials were performed before administration of a test substance and three hours after the administration. At each measurement time, trials were performed up to three times. In a case where the cut-off value was reached, 120 seconds was taken as a walking duration at the time. In a case where the cut-off value was not reached in all three trials, an average of the three values was taken as a walking duration at the time."}}}
{"smiles": "O=C1CC(=O)N(c2ccc(NC(=O)c3ccccc3I)cc2)c2ccc3ccccc3c2N1", "note": "[Example 48 (Compound), 5-[4-(2-iodobenzoylamino)phenyl]-1H-naphtho [1,2-b] [1,4]diazepine-2,4 (3H,5H)-dione]", "values": [{"measurement": "50% escape response threshold", "setting": "[1]; 3 mg/mL group, two hours and four hours after administration", "result": "significantly increased"}, {"measurement": "50% escape response threshold", "setting": "[1]; 10 mg/mL group, one hour to four hours after administration", "result": "significantly increased"}, {"measurement": "50% escape response threshold", "setting": "[1]; 30 mg/mL group, one hour to four hours after administration", "result": "significantly increased"}, {"measurement": "effect on motor coordination", "setting": "rats (SD, male); Rota-rod", "result": "no effect on motor coordination"}, {"measurement": "walking duration (time to fall from the rod)", "setting": "rats (SD, male)", "result": 120, "unit": "s"}]}
{"smiles": "CC(C)C[C@H](CN)CC(=O)O", "note": "[pregabalin, reference compound]", "values": [{"measurement": "walking duration (time to fall from the rod)", "setting": "rats (SD, male)", "result": "22 ± 5", "unit": "s"}]}
